Experimental data published in paper PMC11012124, “Synthesis of Novel Triazine-Based Chalcones and 8,9-dihydro-7H-pyrimido[4,5-b][1,4]diazepines as Potential Leads in the Search of Anticancer, Antibacterial and Antifungal Agents” (International Journal of Molecular Sciences, 2024).

How the values were obtained:
Experiment in all cases: cells
PC-3 = details: Homo sapiens, PC-3, 48 h; for CC50: read-out: LC50
T-47D = details: Homo sapiens, T47D, 48 h; for CC50: read-out: LC50
UACC-257 = details: Homo sapiens, UACC-257, 48 h; for CC50: read-out: LC50
786-0 = details: Homo sapiens, 786-0, 48 h; for CC50: read-out: LC50
UACC-62 = details: Homo sapiens, UACC-62, 48 h; for CC50: read-out: LC50
HL-60(TB) = details: Homo sapiens, HL-60, 48 h; for CC50: read-out: LC50
A549/ATCC = details: Homo sapiens, A549, 48 h; for CC50: read-out: LC50
K-562 = details: Homo sapiens, K562, 48 h; for GI50: K-562, 48 h; for CC50: read-out: LC50
HCC-2998 = details: Homo sapiens, HCC 2998, 48 h; for CC50: read-out: LC50
NCI-H460 = details: Homo sapiens, NCI-H460, 48 h; for CC50: read-out: LC50
LOX IMVI = details: Homo sapiens, 48 h; for CC50: read-out: LC50, LOX IMVI, 48 h
KM12 = details: Homo sapiens, KM12, 48 h; for CC50: read-out: LC50
CCRF-CEM = details: Homo sapiens, 48 h; for CC50: read-out: LC50
SK-MEL-28 = details: Homo sapiens, SK-MEL-28, 48 h; for CC50: read-out: LC50
OVCAR-3 = details: Homo sapiens, OVCAR-3, 48 h; for CC50: read-out: LC50
A498 = details: Homo sapiens, A498, 48 h; for CC50: read-out: LC50
SN12C = details: Homo sapiens, 48 h; for CC50: read-out: LC50
HS 578T = details: Homo sapiens, 48 h; for CC50: read-out: LC50
SF-539 = details: Homo sapiens, SF-539, 48 h; for CC50: read-out: LC50, SF-539, 48 h
MDA-MB-231/ATCC = details: Homo sapiens, MDA-MB-231, 48 h; for CC50: read-out: LC50
NCI-H522 = details: Homo sapiens, NCI-H522, 48 h; for CC50: read-out: LC50
EKVX = details: Homo sapiens, 48 h; for CC50: read-out: LC50
CAKI-1 = details: Homo sapiens, CAKI-1, 48 h; for CC50: read-out: LC50
SK-MEL-2 = details: Homo sapiens, SK-MEL-2, 48 h; for CC50: read-out: LC50
COLO 205 = details: Homo sapiens, COLO 205, 48 h; for CC50: read-out: LC50
HCT-116 = details: Homo sapiens, HCT-116, 48 h; for CC50: read-out: LC50
MOLT-4 = details: Homo sapiens, MOLT-4, 48 h; for CC50: read-out: LC50
UO-31 = details: Homo sapiens, UO-31, 48 h; for CC50: read-out: LC50
SK-MEL-5 = details: Homo sapiens, SK-MEL-5, 48 h; for CC50: read-out: LC50
SNB-19 = details: Homo sapiens, SNB-19, 48 h; for CC50: read-out: LC50
SNB-75 = details: Homo sapiens, SNB-75, 48 h; for CC50: read-out: LC50
U251 = details: Homo sapiens, U-251, 48 h; for GI50: U251, 48 h; for CC50: read-out: LC50
SF-268 = details: Homo sapiens, SF-268, 48 h; for CC50: read-out: LC50
HT29 = details: Homo sapiens, HT-29, 48 h; for CC50: read-out: LC50
HOP-92 = details: Homo sapiens, HOP-92, 48 h; for CC50: read-out: LC50
MDA-MB-468 = details: Homo sapiens, MDA-MB-468, 48 h; for CC50: read-out: LC50
M14 = details: Homo sapiens, M14, 48 h; for CC50: read-out: LC50

## Nc1nc(N)c2c(n1)NC(c1ccc(C(F)(F)F)cc1)CC(c1ccc(Nc3nc(NCCO)nc(Nc4ccc(Cl)cc4)n3)cc1)=N2 (stereo not shown) [33g]
PC-3
  GI50: 1.54 µM
T-47D
  GI50: 1.55 µM
  CC50: 8.75 µM
UACC-257
  GI50: 1.75 µM
  CC50: 5.82 µM
786-0
  GI50: 1.39 µM
  CC50: 6.09 µM
UACC-62
  GI50: 1.68 µM
HL-60(TB)
  GI50: 1.28 µM
  CC50: > 100 µM
A549/ATCC
  GI50: 1.73 µM
  CC50: 7.08 µM
K-562
  GI50: 0.642 µM
  CC50: > 100 µM
HCC-2998
  GI50: 1.31 µM
  CC50: 5.25 µM
NCI-H460
  GI50: 1.96 µM
  CC50: 8.23 µM
LOX IMVI
  GI50: 1.77 µM
KM12
  GI50: 1.37 µM
  CC50: 6.05 µM
CCRF-CEM
  GI50: 1.23 µM
  CC50: > 100 µM
SK-MEL-28
  GI50: 1.53 µM
  CC50: 5.37 µM
OVCAR-3
  GI50: 1.32 µM
  CC50: 6.57 µM
A498
  GI50: 1.56 µM
  CC50: 5.4 µM
SN12C
  GI50: 1.76 µM
  CC50: 6.35 µM
HS 578T
  GI50: 2.55 µM
  CC50: > 100 µM
SF-539
  GI50: 1.56 µM
  CC50: 5.68 µM
MDA-MB-231/ATCC
  GI50: 1.88 µM
NCI-H522
  GI50: 1.34 µM
  CC50: 5.54 µM
EKVX
  GI50: 1.52 µM
  CC50: 5.75 µM
CAKI-1
  GI50: 1.45 µM
  CC50: 5.61 µM
SK-MEL-2
  GI50: 1.67 µM
  CC50: 5.64 µM
COLO 205
  GI50: 1.33 µM
  CC50: 5.25 µM
HCT-116
  GI50: 1.05 µM
  CC50: 5.54 µM
MOLT-4
  GI50: 0.888 µM
  CC50: > 100 µM
UO-31
  GI50: 1.43 µM
  CC50: 5.3 µM
SK-MEL-5
  GI50: 1.55 µM
  CC50: 5.37 µM
SNB-19
  GI50: 1.51 µM
  CC50: 5.76 µM
SNB-75
  GI50: 1.7 µM
  CC50: 9.06 µM
U251
  GI50: 1.24 µM
  CC50: 5.16 µM
SF-268
  GI50: 1.66 µM
  CC50: 7.27 µM
HT29
  GI50: 1.36 µM
  CC50: 6.54 µM
HOP-92
  GI50: 1.48 µM
  CC50: 7.94 µM
MDA-MB-468
  GI50: 1.58 µM
  CC50: 6.53 µM
M14
  GI50: 1.64 µM
  CC50: 5.72 µM

## CN(C)c1nc(NCCNS(=O)(=O)c2ccc(C3=Nc4c(N)nc(N)nc4NC(c4ccccc4)C3)cc2)nc(Nc2ccc(F)cc2)n1 (stereo not shown) [31a]
PC-3
  GI50: 3.84 µM
  CC50: > 100 µM
T-47D
  GI50: 5.12 µM
  CC50: > 100 µM
UACC-257
  GI50: 87.2 µM
  CC50: > 100 µM
786-0
  GI50: 7.88 µM
  CC50: > 100 µM
UACC-62
  GI50: 31.5 µM
  CC50: > 100 µM
HL-60(TB)
  GI50: 4.24 µM
  CC50: > 100 µM
A549/ATCC
  GI50: > 100 µM
  CC50: > 100 µM
K-562
  GI50: 4.33 µM
  CC50: > 100 µM
HCC-2998
  GI50: 11.7 µM
  CC50: > 100 µM
NCI-H460
  GI50: 6.49 µM
  CC50: > 100 µM
LOX IMVI
  GI50: 9.96 µM
  CC50: 25.7 µM
KM12
  GI50: 8.8 µM
  CC50: > 100 µM
CCRF-CEM
  GI50: 4.02 µM
  CC50: > 100 µM
SK-MEL-28
  GI50: > 100 µM
  CC50: > 100 µM
OVCAR-3
  GI50: 69.3 µM
  CC50: > 100 µM
A498
  CC50: > 100 µM
SN12C
  GI50: 7.83 µM
  CC50: > 100 µM
HS 578T
  GI50: 6.43 µM
  CC50: > 100 µM
SF-539
  GI50: 12 µM
  CC50: 63.8 µM
MDA-MB-231/ATCC
  GI50: 6.16 µM
  CC50: 67.6 µM
NCI-H522
  GI50: 77.4 µM
  CC50: > 100 µM
EKVX
  GI50: 6.65 µM
  CC50: > 100 µM
CAKI-1
  GI50: 9.73 µM
  CC50: > 100 µM
SK-MEL-2
  GI50: 28.5 µM
  CC50: > 100 µM
COLO 205
  GI50: 16.4 µM
  CC50: > 100 µM
HCT-116
  GI50: 7.37 µM
  CC50: > 100 µM
MOLT-4
  GI50: 3.11 µM
  CC50: > 100 µM
UO-31
  GI50: > 100 µM
  CC50: > 100 µM
SK-MEL-5
  GI50: 5.81 µM
  CC50: 20.5 µM
SNB-19
  GI50: 21.8 µM
  CC50: > 100 µM
SNB-75
  GI50: 3.58 µM
  CC50: > 100 µM
U251
  GI50: 18.4 µM
  CC50: > 100 µM
SF-268
  GI50: 9.85 µM
  CC50: > 100 µM
HT29
  GI50: 5.32 µM
  CC50: > 100 µM
HOP-92
  GI50: 2.18 µM
  CC50: 9.96 µM
MDA-MB-468
  GI50: 3.37 µM
  CC50: 13.7 µM
M14
  GI50: 24.4 µM
  CC50: > 100 µM

## COc1cc(/C=C/C(=O)c2ccc(S(=O)(=O)NCCNc3nc(N(C)C)nc(N4CCOCC4)n3)cc2)cc(OC)c1OC [23d]
PC-3
  GI50: 3.76 µM
  CC50: > 100 µM
T-47D
  GI50: 5.74 µM
  CC50: 71.5 µM
UACC-257
  GI50: 5.86 µM
  CC50: 43 µM
786-0
  GI50: 1.89 µM
  CC50: 7.18 µM
UACC-62
  GI50: 2.14 µM
  CC50: 22.8 µM
HL-60(TB)
  GI50: 1.97 µM
  CC50: > 100 µM
A549/ATCC
  GI50: 3.55 µM
  CC50: 43.9 µM
K-562
  GI50: 1.46 µM
  CC50: > 100 µM
HCC-2998
  GI50: 1.8 µM
  CC50: 5.9 µM
NCI-H460
  GI50: 3.17 µM
  CC50: 59 µM
LOX IMVI
  GI50: 1.64 µM
  CC50: 5.76 µM
KM12
  GI50: 1.7 µM
  CC50: 6.52 µM
CCRF-CEM
  GI50: 2.07 µM
  CC50: > 100 µM
SK-MEL-28
  GI50: 2.12 µM
  CC50: 13 µM
OVCAR-3
  GI50: 2.02 µM
  CC50: 8.84 µM
A498
  GI50: 14.2 µM
  CC50: 52.6 µM
SN12C
  GI50: 2.72 µM
  CC50: 38.1 µM
HS 578T
  GI50: 2.29 µM
  CC50: > 100 µM
SF-539
  GI50: 1.81 µM
  CC50: 6.29 µM
MDA-MB-231/ATCC
  GI50: 2.9 µM
  CC50: 36.7 µM
NCI-H522
  GI50: 1.66 µM
  CC50: 6.37 µM
EKVX
  GI50: 3.74 µM
  CC50: 82.3 µM
CAKI-1
  GI50: 10.6 µM
  CC50: 51 µM
SK-MEL-2
  GI50: 10.7 µM
  CC50: 48.9 µM
COLO 205
  GI50: 2.14 µM
  CC50: 16.6 µM
HCT-116
  GI50: 1.56 µM
  CC50: 5.92 µM
MOLT-4
  GI50: 2.23 µM
  CC50: > 100 µM
UO-31
  GI50: 1.57 µM
  CC50: 6.32 µM
SK-MEL-5
  GI50: 7.9 µM
  CC50: 46.6 µM
SNB-19
  GI50: 4.28 µM
  CC50: 41.7 µM
SNB-75
  GI50: 1.56 µM
  CC50: 41.6 µM
U251
  GI50: 1.54 µM
  CC50: 5.54 µM
SF-268
  GI50: 3.16 µM
  CC50: 77.2 µM
HT29
  GI50: 1.72 µM
  CC50: 5.93 µM
HOP-92
  GI50: 7.27 µM
  CC50: 76 µM
MDA-MB-468
  GI50: 1.69 µM
  CC50: 6.66 µM
M14
  GI50: 2.18 µM
  CC50: 26.9 µM
